The values below come from ChEMBL document CHEMBL5038589, “Design, Synthesis, and Structure-Activity Relationship of N-Aryl-N'-(thiophen-2-yl)thiourea Derivatives as Novel and Specific Human TLR1/2 Agonists for Potential Cancer Immunotherapy” (J Med Chem, 2021).

Series [1] concerns the target T1, Toll-like receptor 2 (Homo sapiens, UniProt O60603). Description: Agonist activity at TLR2 in HEK-Blue cells assessed as fold increase in activity 0.0015 to 10 uM incubated for 24 hrs by Quanti-Blue based SEAP assay. Particulars: HEK-Blue hTLR2, dose 0.0015-10 µM. Format: cell-based.
Series [2] addresses Toll-like receptor 5 (Homo sapiens) (UniProt O60602). Description: Agonist activity at TLR5 in HEK-Blue hTLR5 cells at 0.1 to 100 uM incubated for 24 hrs by Quanti-Blue based SEAP assay. Particulars: dose 0.1-100 µM. It is filed as cell-based.
The target in series [3] is T1, Toll-like receptor 2. Description: Agonist activity at TLR2 in HEK-Blue hTLR2 cells at 0.2 uM incubated for 24 hrs in presence of anti-hTLR2-IgA antibodies measured by Quanti-Blue based SEAP assay. Format: cell-based. The note with it: filed as agonist.
In series [4] the target is Toll-like receptor 6 (Homo sapiens) (UniProt Q9Y2C9). Description: Agonist activity at TLR6 in HEK-Blue hTLR2 cells at 0.2 uM incubated for 24 hrs in presence of anti-hTLR6-IgA antibodies measured by Quanti-Blue based SEAP assay. Format: cell-based.
The nature of series [5]: Cytotoxicity against HEK-Blue TLR2 cells upto 100 uM incubated for 24 hrs by CCK-8 assay. Format: toxicity, cell-based. The note with it: human, hek-blue htlr2, 24 h. On the technique in general: Tetrazolium dyes change colour on reduction, which living cells bring about.
Series [6] can be described thus: Cytotoxicity against HEK-Blue TLR2 cells incubated for 24 hrs by CCK-8 assay. It is filed as toxicity, cell-based, HEK-Blue hTLR2. The note with it: human.
The test system of series [7] is THP-1. Description: Induction of TNFalpha secretion in TLR2 knock down human THP-1 cells at 20 to 40 uM incubated for 24 hrs by ELISA method. Format: functional, cell-based. The note with it: dose 20-40 µM.
The target in series [8] is T1, Toll-like receptor 2. Description: Binding affinity to recombinant human TLR2 expressed in H5 cells by surface plasmon resonance method. In general terms: SPR reads the build-up and loss of mass on a sensor chip optically.
The subject of series [9] is THP-1. Description: Upregulation of TLR2 expression in human THP-1 cells at 20 uM by immunoprecipitation method. It is filed as functional, cell-based.
In series [10] the test system is THP-1. Description: Upregulation of MyD88 expression in human PMA-differentiated THP-1 cells assessed as induction of p38 phosphorylation at 10 uM incubated for 2 hrs by Western blot analysis. Format: functional, cell-based. For orientation: In western blotting, separated proteins are transferred to a membrane and probed.
The subject of series [11] is THP-1. Description: Induction of TNFalpha secretion in human PMA-differentiated THP-1 cells incubated for 24 hrs by ELISA method. It is filed as functional, cell-based. The note with it: dose 0.01-10 µM.
Series [12] relates to THP-1. Description: Induction of IL-1beta secretion in human PMA-differentiated THP-1 cells incubated for 24 hrs by ELISA method. Format: functional, cell-based. The note with it: dose 0.01-10 µM.
The test system of series [13] is Macrophage. Description: Induction of IL-6 secretion in TLR2-/- C57BL/6 mouse peritoneal macrophages at 0.01 to 10 uM incubated for 24 hrs by ELISA method. Format: functional, cell-based. The note with it: dose 0.01-10 µM.
Series [14] concerns RAW264.7. Description: Induction of nitric oxide release in mouse RAW264.7 cells at 0.01 to 10 uM incubated for 24 hrs by Griess reagent based assay. It is filed as functional, cell-based. Particulars: dose 0.01-10 µM.
In series [15] the test system is CD4+ve Th. Description: Immunostimulatory activity in human CD4+ T cells at 0.1 to 10 uM incubated for 48 hrs by flow cytometry analysis. It is filed as functional, cell-based. The note with it: dose 0.1-10 µM.
Series [16] in a line: Immunostimulatory activity in human CD8+ T cells assessed as fold increase at 0.1 to 10 uM incubated for 48 hrs by flow cytometry analysis. The note with it: dose 0.1-10 µM. It is filed as functional, CD8-positive T cell.
The subject of series [17] is Natural killer cell. Description: Immunostimulatory activity in human NK cells assessed as fold increase at 0.1 to 10 uM incubated for 48 hrs by flow cytometry analysis. It is filed as functional. Particulars: dose 0.1-10 µM.
Series [18] relates to B cell. Description: Immunostimulatory activity in human B cells assessed as fold increase at 0.1 to 10 uM incubated for 48 hrs by flow cytometry analysis. Particulars: dose 0.1-10 µM. Format: functional.
The test system of series [19] is HCT-116. Description: Induction of apoptosis in human HCT-116 cells cocultured with PMA-differentiated THP-1 cells assessed as early apoptotic cells at 10 uM measured after 24 hrs using annexin V-FITC/PI staining based flow cytometry. It is filed as functional.
The test system of series [20] is HCT-116. Description: Induction of apoptosis in human HCT-116 cells cocultured with PMA-differentiated THP-1 cells assessed as late apoptotic cells at 10 uM measured after 24 hrs using annexin V-FITC/PI staining based flow cytometry. It is filed as functional.
Series [21] deals with MCF7. Description: Induction of apoptosis in human MCF7 cells cocultured with PMA-differentiated THP-1 cells assessed as early apoptotic cells at 10 uM measured after 24 hrs by annexin V-FITC/PI staining based flow cytometry (reference value: 7.87 %). It is filed as functional.
Series [22] relates to THP-1. Description: Upregulation of MyD88 expression in human PMA-differentiated THP-1 cells in presence of T6167923 at 10 uM after 30 mins by western blot analysis. Format: functional, cell-based.

pKd: −log10 of the molar value. Activity calls are given as the source filed them. The calls are words filed in the database; no cut-off is given here.

T1 sequence (O60603 whole entry): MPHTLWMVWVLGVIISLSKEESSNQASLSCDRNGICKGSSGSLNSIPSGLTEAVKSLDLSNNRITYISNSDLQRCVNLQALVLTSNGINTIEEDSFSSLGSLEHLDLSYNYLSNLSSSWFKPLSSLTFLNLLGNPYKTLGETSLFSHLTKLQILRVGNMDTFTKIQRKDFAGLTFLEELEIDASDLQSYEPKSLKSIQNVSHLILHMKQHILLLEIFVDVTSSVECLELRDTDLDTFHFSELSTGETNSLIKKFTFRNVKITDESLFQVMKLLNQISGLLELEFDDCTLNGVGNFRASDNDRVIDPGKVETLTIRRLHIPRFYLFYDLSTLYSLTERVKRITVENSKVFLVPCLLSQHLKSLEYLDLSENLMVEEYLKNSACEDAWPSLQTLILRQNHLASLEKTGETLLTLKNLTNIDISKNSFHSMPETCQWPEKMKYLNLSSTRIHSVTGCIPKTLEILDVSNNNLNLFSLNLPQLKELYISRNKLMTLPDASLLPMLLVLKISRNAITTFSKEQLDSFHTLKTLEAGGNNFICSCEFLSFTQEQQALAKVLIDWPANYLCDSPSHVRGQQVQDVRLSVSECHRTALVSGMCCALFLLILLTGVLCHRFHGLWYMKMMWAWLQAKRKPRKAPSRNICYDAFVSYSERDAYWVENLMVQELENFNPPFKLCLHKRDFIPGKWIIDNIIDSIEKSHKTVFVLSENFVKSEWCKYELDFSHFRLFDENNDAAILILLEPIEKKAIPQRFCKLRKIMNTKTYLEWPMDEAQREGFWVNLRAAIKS
Toll-like receptor 6 (Homo sapiens), sequence (Q9Y2C9 whole entry): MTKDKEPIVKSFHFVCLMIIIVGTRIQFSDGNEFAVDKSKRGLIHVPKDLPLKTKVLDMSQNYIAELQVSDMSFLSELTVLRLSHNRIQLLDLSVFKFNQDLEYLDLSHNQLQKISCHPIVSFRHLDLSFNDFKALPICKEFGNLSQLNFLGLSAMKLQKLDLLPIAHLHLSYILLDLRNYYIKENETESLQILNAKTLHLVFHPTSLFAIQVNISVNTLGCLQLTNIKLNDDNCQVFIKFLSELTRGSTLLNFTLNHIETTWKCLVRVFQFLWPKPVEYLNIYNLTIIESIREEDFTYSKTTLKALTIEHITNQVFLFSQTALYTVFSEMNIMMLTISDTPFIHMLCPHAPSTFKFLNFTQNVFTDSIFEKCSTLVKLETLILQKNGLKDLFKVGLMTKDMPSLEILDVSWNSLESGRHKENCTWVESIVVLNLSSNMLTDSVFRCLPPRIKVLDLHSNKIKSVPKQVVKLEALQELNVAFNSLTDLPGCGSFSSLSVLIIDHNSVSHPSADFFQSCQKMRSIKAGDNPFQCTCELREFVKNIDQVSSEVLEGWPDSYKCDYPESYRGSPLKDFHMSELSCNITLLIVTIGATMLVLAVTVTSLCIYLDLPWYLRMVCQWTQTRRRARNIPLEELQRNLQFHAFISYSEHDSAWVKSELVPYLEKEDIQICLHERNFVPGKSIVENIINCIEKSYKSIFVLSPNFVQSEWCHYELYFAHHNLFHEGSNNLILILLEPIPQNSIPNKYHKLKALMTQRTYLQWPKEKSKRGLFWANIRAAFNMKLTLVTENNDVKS
Toll-like receptor 5 (Homo sapiens), sequence (O60602 whole entry): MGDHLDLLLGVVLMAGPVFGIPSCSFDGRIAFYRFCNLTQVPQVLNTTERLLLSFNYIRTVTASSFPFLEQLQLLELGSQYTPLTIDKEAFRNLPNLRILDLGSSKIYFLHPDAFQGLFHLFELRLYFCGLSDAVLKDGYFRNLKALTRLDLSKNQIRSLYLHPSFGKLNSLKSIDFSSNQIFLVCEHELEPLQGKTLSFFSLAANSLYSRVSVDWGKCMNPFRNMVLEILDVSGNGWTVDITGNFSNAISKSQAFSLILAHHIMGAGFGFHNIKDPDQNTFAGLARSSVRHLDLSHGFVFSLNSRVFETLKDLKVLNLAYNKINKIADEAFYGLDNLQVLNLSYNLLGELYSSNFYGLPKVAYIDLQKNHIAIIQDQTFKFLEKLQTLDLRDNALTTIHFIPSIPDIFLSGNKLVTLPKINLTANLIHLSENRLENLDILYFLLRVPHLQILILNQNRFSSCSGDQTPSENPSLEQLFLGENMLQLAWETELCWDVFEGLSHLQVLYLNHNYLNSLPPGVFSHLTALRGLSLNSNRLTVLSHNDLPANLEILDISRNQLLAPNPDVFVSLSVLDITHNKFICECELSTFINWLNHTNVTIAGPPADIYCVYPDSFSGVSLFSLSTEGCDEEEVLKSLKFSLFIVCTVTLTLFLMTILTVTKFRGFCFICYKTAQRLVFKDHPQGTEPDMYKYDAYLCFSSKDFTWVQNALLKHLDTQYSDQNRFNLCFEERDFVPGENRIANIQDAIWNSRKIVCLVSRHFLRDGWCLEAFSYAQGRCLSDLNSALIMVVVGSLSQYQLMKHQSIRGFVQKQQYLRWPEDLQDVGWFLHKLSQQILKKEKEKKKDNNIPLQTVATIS

As a reminder, the CC50 is the concentration that lowers cell viability or growth by half. A higher CC50 goes with lower toxicity to the cells. A word on the pKd: it is the Kd on a negative log10 scale, so that one unit is a factor of ten. As for `CC(C)OC(=O)c1c(NC(=S)Nc2ccc(F)c3ccccc23)sc2c1CCC2`, the fold change (FC) was determined as 370 in series [1], 2 in series [16], 2 in series [17] and 7 in series [18]. Also, the result in series [2], in series [4], in series [7], in series [13] and in series [14] was inactive. Moreover, the result in series [3], in series [9], in series [10], in series [15] and in series [22] was Active. For the same compound, the Activity entry in [5] was “Non-Toxic”; in [11], “Dose-Dependent Effect”; in [12], “Dose-Dependent Effect”; in [19], 11.5%; in series [20], 14.3%; in series [21], 16.4%. For the same compound, the cytotoxic concentration (CC50) at 24 h in series [6] is above 100000 nM. Besides, the negative logarithm of the Kd (pKd) in [8] was 7.28.
